Data from patent US20180074053A1 (priority 2016, published 2018).
“Also recorded” adds a separate entry of the source. Read-outs that look alike come from different tables or passages of the source.

Tests used:
C57BL/6J mice = assay: Oral glucose tolerance test (OGTT); type: in vivo, mouse; settings: for significance of blood glucose lowering in OGTT / blood glucose in response to a glucose load (OGTT): Example 5, FIG. 9; for blood glucose in response to a glucose load (OGTT): 1, 0.5 and 0.1 mg/g body weight; for overall effect on blood glucose in OGTT: Example 8, FIG. 13, GABA 200 mg/kg, DT-109 1 mg/g, p<0.01 2-way ANOVA; for overall effect on blood glucose in OGTT vs vehicle: Example 9, FIG. 14, DT-110 1 mg/g, alamandine 10 mg/g, metformin 0.2 mg/g
Experimental: (§1) C57BL/6J mice were received from Jackson Laboratories at 4 weeks old and aged to 7 weeks and then grouped by body weight into 4 groups of 10. The mice were fasted overnight (12 hours) prior to the assay. Body weights and blood glucose (FreeStyle Lite glucometer) levels were determined. […] At 30, 60, 90, and 120 minutes glucose levels were measured using whole blood collected from the tip of the tail via needle puncture. Upon the final 120 min measurement, food was returned to the mice.
Oral glucose tolerance tests (OGTTs) were performed as described in Example 1.
as §1, with “puncture.” for “puncture. Upon the final 120 min measurement, food was returned to the mice.”
as §1, with “puncture.” for “puncture. Upon the final 120 min measurement, food was returned to the mice.”

MRGD [1] = target: T1, MRGD (Homo sapiens, UniProt Q8TDS7); assay: Calcium mobilization in MRGD over-expressing cells; type: cell-based; set-up: host or cells: ChemiScreen over-expressing cell line, given as 'HEK 293T cells (Chem-1, EMD Millipore)'; settings: for activation of calcium mobilization: Example 6, FIG. 10, entire dose range
Experimental: (§2) Cells were grown in DMEM medium containing 10% FBS, 1× non-essential amino acids (Gibco #111450-040), 20 mM HEPES and 250 μg/mL Geneticin® (Gibco #10131-035). Cells were harvested with 0.25% Trypsin/EDTA (Gibco #25200-056), pelleted at 1,200×g for 6 minutes and resuspended in DMEM media described above minus Geneticin®. The cells were seeded at 4×10^4 cells/well/100 μL of a clear bottom/black 96-well plate and grown overnight. The calcium mobilization assays was performed using Screen Quest Fluo-8 Medium Removal Calcium Assay Kit (AAT Bioquest #36308) according to the manufacturer's protocol. Briefly, cells were washed with 100 μL volume of Hank's balanced salt solution, 20 mM HEPES, pH 7.4 and loaded with a buffer containing HBSS, 20 mM HEPES, 1× Pluronic F127 and the Fluo-8 NW dye. The cells were incubated for 30 minutes at 37° C. followed by a 30 minute room temperature incubation. Drug stocks were prepared at 100× concentration and diluted 1:33 in HBSS, 20 mM HEPES, pH 7.4 in a 96-well plate (Corning #3641). Calcium mobilization was measured using the FlexStation 3 (Molecular Devices) at excitation wavelength of 490 nm and emission wavelength of 525 nm. Fluorescence was measured for 180 seconds at 5 second intervals with the addition of compound at a 1:3 dilution after 15 seconds. Peak fluorescence values were calculated using SoftMax Pro 5 (Molecular Devices). The fluorescence values obtained from control wells without cells are subtracted from wells containing treated cells to correct for background. The ratio of fluorescence values of treated cells to vehicle control wells was used to calculate fold activity of the compounds.
MRGD cells (EMD Millipore, MA) were treated with either β-alanine, or alamandine at various concentrations (FIG. 10) and calcium mobilization was monitored using a FlexStation 3 Microplate Reader (Molecular Devices) as described in Example 4.

STC-1 cells [2] = assay: GLP-1 secretion from STC-1 cells (ELISA); type: cell-based, mouse; settings: STC-1 cells, co-treatment with DT-110, 2 hours; FIG. 3
Experimental: The pathways and sites of action of H89 and U73122 are graphically represented in FIG. 2.
Supernatants were collected for GLP-1 measurement. and the GLP-1 concentration was measured using a total GLP-1 (7-36 and 9-36) ELISA kit according to manufacturer's instruction (Alpco. Salem, N.H.).

eNOS = eNOS mRNA expression in HUVEC; type: cell-based, human; settings: FIG. 15
Source text: It has been shown that activation of MRGD by alamandine plays an important role in vasodilation by increasing nitric oxide (NO) production. NO produced by the endothelium is an important protective molecule in the vasculature and is mainly generated by the enzyme endothelial NO synthase (eNOS) in blood vessels. Enhancing the expression of eNOS has been considered as possible therapeutic strategy for reducing cardiovascular risk.

MRGD [3] = target: T1, MRGD; assay: Calcium mobilization in MRGD cells, antagonist mode; type: cell-based; set-up: host or cells: ChemiScreen over-expressing cell line, given as 'HEK 293T cells (Chem-1, EMD Millipore)'; settings: 15 min pre-incubation 30 nM-3 μM, FIG. 11
Experimental: A similar assay was run in the antagonist mode where cells were first incubated with 0, 30 nM, 300 nM or 3 μM alamandine as shown in FIG. 11 (x-axis) for 15 minutes. Then one of 3 different agonists was added to the wells, at their EC90 and the calcium mobilization recorded.

GPCR109a = GPCR109a (Homo sapiens, UniProt Q8TDS4); settings: doses of 5 mM and below; FIG. 6A
Experimental: as §2
(§3) The specificity of the agonist activity was determined by testing in the cell lines that over-express GPCR40 and GPCR 109a.

GPCR40 = GPCR40 (Homo sapiens, UniProt O14842); settings: doses of 5 mM and below; FIG. 7A
Experimental: as §2, §3

MrgprD^−/− (KO) mice = settings: P<0.05 KO vs. WT
Experimental: (§4) The mice were fasted overnight and their fasting glucose levels were measured. […] Blood glucose levels were measured at 30, 60, 90 and 120 minutes after glucose loading.
as §4

STC-1 cells [4] = settings: has been shown; cited from earlier work
diabetic mice = settings: has been shown; cited from earlier work
[5] = test system: C57/BL/6J mice and diabetic mouse models; settings: previous studies (Zhang 2013; U.S. Pat. No. 8,664,177); cited from earlier work
[6] = target: MAS-related G-protein-coupled receptor member D (MRGD) (human, UniProt Q8TDS7 1-321); assay: cell-based or functional assay
Sequence of MAS-related G-protein-coupled receptor member D (MRGD) (Q8TDS7 whole entry): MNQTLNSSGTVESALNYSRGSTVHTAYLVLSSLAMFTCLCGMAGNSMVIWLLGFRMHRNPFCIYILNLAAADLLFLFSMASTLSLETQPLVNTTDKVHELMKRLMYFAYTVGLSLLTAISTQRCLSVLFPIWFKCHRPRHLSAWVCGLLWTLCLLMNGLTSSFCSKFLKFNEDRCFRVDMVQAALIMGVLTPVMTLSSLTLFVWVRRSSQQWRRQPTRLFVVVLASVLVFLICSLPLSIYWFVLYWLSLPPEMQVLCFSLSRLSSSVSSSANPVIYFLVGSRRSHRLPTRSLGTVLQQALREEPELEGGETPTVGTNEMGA

T1 sequence (Q8TDS7 whole entry): as above
Sequence of GPCR40 (O14842 whole entry): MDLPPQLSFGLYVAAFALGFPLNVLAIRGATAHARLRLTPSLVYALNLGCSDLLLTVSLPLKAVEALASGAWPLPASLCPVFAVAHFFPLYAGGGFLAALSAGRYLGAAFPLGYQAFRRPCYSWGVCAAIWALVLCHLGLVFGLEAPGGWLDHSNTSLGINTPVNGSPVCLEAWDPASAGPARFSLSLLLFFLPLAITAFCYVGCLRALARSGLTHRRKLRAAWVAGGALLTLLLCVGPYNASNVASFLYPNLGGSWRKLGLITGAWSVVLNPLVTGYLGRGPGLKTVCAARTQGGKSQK
Sequence of GPCR109a (Q8TDS4 whole entry): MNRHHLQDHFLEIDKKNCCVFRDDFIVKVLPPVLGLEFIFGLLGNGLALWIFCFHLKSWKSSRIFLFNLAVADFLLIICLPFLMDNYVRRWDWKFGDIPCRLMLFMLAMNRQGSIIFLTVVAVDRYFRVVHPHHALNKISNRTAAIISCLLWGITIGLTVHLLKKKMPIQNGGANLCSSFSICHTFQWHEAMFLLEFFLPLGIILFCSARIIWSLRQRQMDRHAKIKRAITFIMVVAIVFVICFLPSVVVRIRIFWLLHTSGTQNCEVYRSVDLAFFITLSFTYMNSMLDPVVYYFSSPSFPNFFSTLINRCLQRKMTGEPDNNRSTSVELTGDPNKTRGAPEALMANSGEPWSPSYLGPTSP

Question: What does the source list for `NCCC(=O)O` [β-alanine, reference compound]?
Answer: significance of blood glucose lowering in OGTT (C57BL/6J mice; 0.1 mg/g): did not; significance of blood glucose lowering in OGTT (C57BL/6J mice; 0.5 mg/g): showed significance; significance of blood glucose lowering in OGTT (C57BL/6J mice; 1 mg/g): showed significance; blood glucose in response to a glucose load (OGTT) (C57BL/6J mice): lower blood glucose in response to a glucose load, in a dose-dependent manner; EC50 (MRGD [1]; Example 4, FIG. 8, DT-110 lot 2, read-out: EC50): 7.5 µM; activation of calcium mobilization (MRGD [1]): stimulated calcium mobilization; potency relative to DT-110 or DT-109 (MRGD [1]; FIG. 8): more than 10 fold

Question: Which “inhibition of DT-110 stimulated GLP-1 secretion” value (STC-1 cells [2]) does the source give for `COc1ccc2c(c1)CC[C@@H]1[C@@H]2CC[C@]2(C)[C@@H](NCCCCCCN3C(=O)C=CC3=O)CC[C@@H]12` [U73122] here?
Answer: inhibit DT-110 stimulated GLP-1 secretion; also recorded: partially inhibited

Question: Which results are given for `NCCCC(=O)O` [GABA, gamma amino butyric acid, reference compound]?
Answer: overall effect on blood glucose in OGTT (C57BL/6J mice): overall significant effect in lowering blood glucose; EC50 (MRGD [1]; Example 7, FIG. 12, read-out: half maximal effective concentration (EC50)): ~68 µM

Question: Which “eNOS mRNA levels” value (eNOS; 30 minutes, vs control) does the source give for alamandine here?
Answer: the same

Question: And the eNOS expression (eNOS; 60 minutes)?
Answer: increased eNOS expression

Question: What about the eNOS expression (eNOS; 120 minutes) of the same molecule?
Answer: returned to control levels

Question: What about the “overall effect on blood glucose in OGTT vs vehicle” value (C57BL/6J mice) of the same molecule?
Answer: weak but overall significant effect

Question: And the “effect on DT-109 signaling” value (MRGD [3]; DT-109 at EC90)?
Answer: did not have any significant effect

Question: And the “effect on DT-110 signaling” value (MRGD [3]; DT-110 at EC90)?
Answer: did not have any significant effect

Question: And the “effect on β-alanine signaling” value (MRGD [3]; β-alanine at EC90, P<0.05)?
Answer: significantly decreased β-alanine signaling

Question: And the “activation of calcium mobilization” value (MRGD [1])?
Answer: no activation of calcium mobilization; also recorded: did not

Question: Which “agonist activity (Ca2+ flux)” value (GPCR109a) does the source give for `CC(C)C[C@H](NC(=O)CNC(=O)CN)C(=O)O` here?
Answer: inactive

Question: And the “agonist activity (Ca2+ flux)” value (GPCR40)?
Answer: inactive

Question: What about the “reduction of blood glucose levels in KO mice compared with WT mice (OGTT)” value (MrgprD^−/− (KO) mice; 0.25 mg/g with 2 mg/g glucose oral) of the same molecule?
Answer: significantly impaired

Question: And the “reduction of blood glucose levels in KO mice compared with WT mice (OGTT)” value (MrgprD^−/− (KO) mice; 0.5 mg/g with 2 mg/g glucose oral)?
Answer: significantly impaired

Question: What about the GLP-1 secretion (STC-1 cells [4]) of the same molecule?
Answer: stimulate GLP-1 secretion

Question: What about the “blood glucose levels during OGTT” value (C57BL/6J mice; Example 1, FIG. 1A, 2 mg/g glucose plus 1.0, 0.5 or 0.1 mg/g oral gavage, 30-120 min) of the same molecule?
Answer: lowers blood glucose levels in C57BL/6J mice during OGTT in a dose dependent manner

Question: What about the “blood glucose area under curve (AUC) in OGTT” value (C57BL/6J mice; Example 1, FIG. 1B, 1.0, 0.5 or 0.1 mg/g oral, p<0.01 vs control) of the same molecule?
Answer: significantly lowers blood glucose in mice in a dose dependent manner

Question: What about the “significance of blood glucose lowering in OGTT” value (C57BL/6J mice; 0.1 mg/g) of the same molecule?
Answer: significant

Question: And the “significance of blood glucose lowering in OGTT” value (C57BL/6J mice; 0.5 mg/g)?
Answer: significant

Question: What about the “significance of blood glucose lowering in OGTT” value (C57BL/6J mice; 1 mg/g) of the same molecule?
Answer: significant

Question: What about the “blood glucose in response to a glucose load (OGTT)” value (C57BL/6J mice) of the same molecule?
Answer: lower blood glucose in response to a glucose load, in a dose-dependent manner

Question: And the “overall effect on blood glucose in OGTT” value (C57BL/6J mice)?
Answer: overall significant effect in lowering blood glucose

Question: And the calcium mobilization activity (MRGD [1]; at 5 mM, highest dose used, Example 4)?
Answer: active

Question: What about the GLP-1 level (diabetic mice) of the same molecule?
Answer: elevate GLP-1 level

Question: What about the blood glucose [5] of the same molecule?
Answer: lower blood glucose

Question: For `CN(C)C(=N)N=C(N)N` [metformin, reference compound], which “overall effect on blood glucose in OGTT vs vehicle” value (C57BL/6J mice) is on record?
Answer: significant effect on blood glucose

Question: What about the “effect on blood glucose compared with alamandine” value (C57BL/6J mice; Example 9, P<0.001) of the same molecule?
Answer: significantly better than alamandine

Question: With `O=S(=O)(NCCNC/C=C/c1ccc(Br)cc1)c1cccc2cnccc12` [H89] as the molecule, how does the “inhibition of DT-110 stimulated GLP-1 secretion” value (STC-1 cells [2]) read?
Answer: inhibit DT-110 stimulated GLP-1 secretion; also recorded: partially inhibited

Question: Which “EC50, calcium mobilization in MRGD over-expressing cells (FIG. 5)” value [6] does the source give for GGL [DT-109, three amino acid peptide glycine-glycine-leucine (GGL)] here?
Answer: 600 µM

Question: What about the “EC50, calcium mobilization in the MRGD cell line (FIG. 8)” value [6] of the same molecule?
Answer: 178 µM
